From patent US12187758B2 (ROME Therapeutics, Inc., priority 2022, dated 2025)

Legend:
Type in all cases: cell-based
[1] = Mitochondria toxicity assay with PC3 cells, in-cell ELISA COX-1; settings: 5 days treatment
Procedure: (§1) Exemplary compounds were tested for inhibition of expression of mitochondria DNA encoded proteins COX-1 […]. SDH-A (succinate dehydrogenase-A) is a control mitochondria protein encoded by nuclear DNA. Reduction in COX-1 expression indicates off target inhibition of mitochondria DNA synthesis which leads to mitochondrial toxicity. Assay procedures and results are described below.
(§2) PC3 cells were purchased from ATCC and cultured in F-12 Kaighn's modified medium (Hyclone), 10% heat-inactivated fetal bovine serum (Invitrogen), 1% Penicillin-Streptomycin (Invitrogen). PC3 cells were treated with a dose titration of a test compound on 96 well plates for 5 days at 37° C., 5% CO2 in a humidified incubator. The treatment plates are duplicated, one for in-cell ELISA for mitochondria proteins and one for cytotoxicity.
(§3) In-cell ELISA was performed to measure mitochondrial proteins using MitoBiogenesis In-Cell ELISA kit (Abcam) per manufacturer's instruction. The medium was aspirated from the compound treated cells, 100 μl per well of 4% paraformaldehyde (Solarbio) was added and cells were incubated at room temperature for 20 minutes. The cells were washed three times with PBS. 100 μl of 0.5% acetic acid was added per cell, and the cells were incubate at room temperature for 5 minutes. Cells were washed once with PBS. 100 μl per well of Permeabilization Buffer was added, and the cells incubate at room temperature for 30 minutes. The permeabilization buffer was removed and 200 μl per well 2× Blocking Buffer was added and the cells were incubated at room temperature for 2 hours. After removing the Blocking Buffer 100 μl per well of primary antibody to SDH-A or COX-1 was added, and the cells were incubated at 4° C. overnight. The primary antibody solution was removed and cells were washed 3 times with the Wash Buffer. 100 μl per well of AP- and HRP-labelled secondary antibodies was added, and the cells were incubated at room temperature for 1 hour. The cells were then washed 4 times with the Wash Buffer. For SDH-A detection, 100 μl per well AP Development Solution was added, and the cells were incubated at room temperature for 10 minutes. Cells were then read on CLARTO star^plus microplate reader (BMG Labtech) for kinetic readings at 405 nm for 5 minutes. […] The cells were then read on CLARTO star^plus microplate reader (BMG Labtech) for kinetic readings at 600 nm for 15 minutes.
(§4) In the table “A” represents values<1.0 μM; “B” represents values from >1.0 μM to ≤10.0 μM; “C” represents values from >10.0 μM to ≤50.0 μM; “D” represents values from >50.0 μM to ≤100.0 μM; and “E” represents values>100.0 μM.

[2] = system: SDH-A (succinate dehydrogenase-A); assay: Mitochondria toxicity assay with PC3 cells, in-cell ELISA SDH-A; settings: 5 days treatment
Procedure: as §1, §2, §3, §4

PC3 cells = assay: Mitochondria toxicity assay with PC3 cells, cytotoxicity (Cell Titer Glo); settings: Homo sapiens, PC-3, 120 h, 5 days treatment
Procedure: as §2
For the cytotoxicity assay, the medium from the cell viability plate was removed, 50 μL per well of Cell Titer Glo (Promega, G9683) was added. Then the cells incubated for 30 minutes at room temperature. Luminescence was read by Envision (PerkinElmer 2105).
as §4

Row | SMILES | IC50 [1] | IC50 [2] | IC50 (PC3 cells)
1 | Nc1nc(F)nc2c1ncn2[C@H]1C[C@H](O)C(CO)(CO)O1 [Compound 10, ((3S,5R)-5-(6-amino-2-fluoro-9H-purin-9-yl)-3-hydroxytetrahydrofuran-2,2-diyl) dimethanol] | 1 to 10 µM | 1 to 10 µM | 10 to 50 µM
2 | Cc1cn([C@H]2C[C@H](O)[C@](CO)(N=[N+]=[N-])O2)c(=O)[nH]c1=O [Compound 30, 1-((2R,4S,5R)-5-azido-4-hydroxy-5-(hydroxymethyl)tetrahydrofuran-2-yl)-5-methylpyrimidine-2,4(1H,3H)-dione] | > 100 µM | > 100 µM | > 100 µM
3 | CO[C@]1(CO)O[C@@H](n2ccc(N)nc2=O)C[C@@H]1O [Compound 48, 4-amino-1-((2R,4S,5R)-4-hydroxy-5-(hydroxymethyl)-5-methoxytetrahydrofuran-2-yl)pyrimidin-2(1H)-one] | 1 to 10 µM | 1 to 10 µM | 10 to 50 µM
4 | [N-]=[N+]=N[C@]1(CO)O[C@@H](n2ccc(N)nc2=O)C[C@@H]1O [Compound 49, 4-amino-1-((2R,4S,5R)-5-azido-4-hydroxy-5-(hydroxymethyl)tetrahydro-furan-2-yl)pyrimidin-2(1H)-one] | < 1 µM | < 1 µM | < 1 µM
5 | CO[C@H]1C[C@H](n2ccc(N)nc2=O)O[C@@]1(CO)CCl [Compound 54, 4-amino-1-[(2R,4S,5R)-5-(chloromethyl)-5-(hydroxymethyl)-4-methoxyoxolan-2-yl]-3,4-dihydropyrimidin-2-one] | > 100 µM | > 100 µM | > 100 µM
6 | Nc1ccn([C@H]2C[C@@H](O)[C@](CO)(CCl)O2)c(=O)n1 [Compound 59, 4-amino-1-[(2R,4R,5R)-5-(chloromethyl)-4-hydroxy-5-(hydroxymethyl)oxolan-2-yl] pyrimidin-2-one] | > 100 µM | > 100 µM | > 100 µM
7 | Nc1nc(=O)n([C@H]2C[C@H](O)[C@](CO)(CCl)O2)cc1C(F)(F)F [Compound 71, 4-amino-1-((2R,4S,5R)-5-(chloromethyl)-4-hydroxy-5-(hydroxymethyl)tetrahydrofuran-2-yl)-5-(trifluoromethyl)pyrimidin-2(1H)-one] | > 100 µM | > 100 µM | > 100 µM
8 | Nc1ncnn2c([C@H]3C[C@H](O)[C@](CO)(CF)O3)ccc12 [Compound 79, (2R,3S,5R)-5-(4-aminopyrrolo[2,1-f] [1,2,4]triazin-7-yl)-2-(fluoromethyl)-2-(hydroxymethyl) tetrahydrofuran-3-ol] | > 100 µM | > 100 µM | > 100 µM
9 | Nc1nc2c(ncn2[C@@H]2O[C@@](CO)(CF)[C@@H](O)[C@@H]2F)c(=O)[nH]1 [Compound 83, 2-amino-9-((2R,3S,4R,5R)-3-fluoro-5-(fluoromethyl)-4-hydroxy-5-(hydroxymethyl)tetrahydrofuran-2-yl)-1,9-dihydro-6H-purin-6-one] | 10 to 50 µM | 10 to 50 µM | 10 to 50 µM
10 | Nc1nc(F)nc2c1ncn2[C@@H]1O[C@@](CO)(CF)[C@@H](O)[C@@H]1F [Compound 84] | 10 to 50 µM | 50 to 100 µM | 10 to 50 µM
11 | Nc1nc2c(ncn2[C@@H]2O[C@@](CO)(CCl)[C@@H](O)[C@@H]2O)c(=O)[nH]1 [Compound 94, 2-amino-9-[(2R,3S,4S,5R)-5-(chloromethyl)-3,4-dihydroxy-5-(hydroxymethyl)oxolan-2-yl]-1H-purin-6-one] | > 100 µM | > 100 µM | > 100 µM
12 | Nc1nc(=O)n([C@@H]2O[C@@](CO)(C(F)(F)F)[C@@H](O)[C@@H]2O)cc1F [Compound 95, 4-amino-1-((2R,3S,4S,5R)-3,4-dihydroxy-5-(hydroxymethyl)-5-(trifluoromethyl)tetrahydrofuran-2-yl)-5-fluoropyrimidin-2(1H)-one] | > 100 µM | > 100 µM | > 100 µM
13 | Nc1nc(=O)n([C@@H]2O[C@@](CO)(CI)[C@@H](O)[C@@H]2F)cc1F [Compound 129, 4-amino-5-fluoro-1-((2R,3S,4R,5R)-3-fluoro-4-hydroxy-5-(hydroxymethyl)-5-(iodomethyl)tetrahydrofuran-2-yl)pyrimidin-2(1H)-one] | > 100 µM | > 100 µM | > 100 µM
14 | Nc1nc(=O)n([C@@H]2O[C@](/C=C\Cl)(CO)[C@@H](O)[C@@H]2F)cc1F [Compound 132, 4-amino-1-[(2R,3S,4R,5R)-5-(2-chloroethenyl)-3-fluoro-4-hydroxy-5(Z)-(hydroxymethyl)oxolan-2-yl]-5-fluoropyrimidin-2-one] | > 100 µM | > 100 µM | > 100 µM
15 | CSC[C@]1(CO)O[C@@H](n2cc(F)c(N)nc2=O)[C@@H](F)[C@@H]1O [Compound 135, 4-amino-5-fluoro-1-[(2R,3S,4R,5R)-3-fluoro-4-hydroxy-5-(hydroxymethyl)-5-[(methylsulfanyl)methyl]oxolan-2-yl] pyrimidin-2-one] | 1 to 10 µM | 10 to 50 µM | 10 to 50 µM
16 | NC(=O)[C@]1(CO)O[C@@H](n2cc(F)c(N)nc2=O)[C@@H](F)[C@@H]1O [Compound 138, (2R,3R,4S,5R)-5-(4-amino-5-fluoro-2-oxopyrimidin-1-yl)-4-fluoro-3-hydroxy-2-(hydroxymethyl) oxolane-2-carboxamide] | > 100 µM | > 100 µM | > 100 µM
17 | NC[C@]1(CO)O[C@@H](n2cc(F)c(N)nc2=O)[C@@H](F)[C@@H]1O [Compound 139, 4-amino-1-[(2R,3S,4R,5R)-5-(aminomethyl)-3-fluoro-4-hydroxy-5-(hydroxymethyl)oxolan-2-yl]-5-fluoropyrimidin-2-one] | > 100 µM | > 100 µM | > 100 µM
18 | CC(O)[C@]1(CO)O[C@@H](n2cc(F)c(=O)[nH]c2=O)[C@@H](F)[C@@H]1O (stereo partly drawn) [Compound 162, 5-fluoro-1-[(2R,3S,4R,5S)-3-fluoro-4-hydroxy-5-(1-hydroxyethyl)-5-(hydroxymethyl)oxolan-2-yl]-3H-pyrimidine-2,4-dione] | > 100 µM | > 100 µM | > 100 µM
19 | O=c1[nH]c(=O)n([C@@H]2O[C@@](CO)(CCl)[C@@H](O)[C@@H]2F)cc1F [Compound 163, 1-[(2R,3S,4R,5R)-5-(chloromethyl)-3-fluoro-4-hydroxy-5-(hydroxymethyl)oxolan-2-yl]-5-fluoro-3H-pyrimidine-2,4-dione] | > 100 µM | > 100 µM | > 100 µM
20 | N#C[C@]1(CO)O[C@@H](n2cc(F)c(N)nc2=O)[C@@H](F)[C@@H]1O [Compound 166] | > 100 µM | > 100 µM | > 100 µM
